Data reported in the CheMixHub ionic liquid set.
± gives the uncertainty stated by the source.

Assay: xn = mol fraction of the nth substance listed
Conditions: 101 kPa

SMILES: CCCC[N+](CCCC)(CCCC)CCCC.O=S(=O)([O-])O + O=C1O[C@H]([C@@H](O)CO)C(O)=C1O + O
- viscosity (298.15 K, x2 = 0.0003644, x1 = 0.0003601): 0.908 ± 0.009 mPa·s
- viscosity (298.15 K, x2 = 0.0003645, x1 = 9.006e-05): 0.901 ± 0.009 mPa·s
- viscosity (298.15 K, x2 = 0.000365, x1 = 0.0001801): 0.903 ± 0.009 mPa·s
- viscosity (298.15 K, x2 = 0.0003656, x1 = 0.0002701): 0.906 ± 0.009 mPa·s
- viscosity (298.15 K, x2 = 0.0006576, x1 = 0.0001801): 0.91 ± 0.009 mPa·s
- viscosity (298.15 K, x2 = 0.0006584, x1 = 9.003e-05): 0.908 ± 0.009 mPa·s
- viscosity (298.15 K, x2 = 0.0006587, x1 = 0.00027): 0.912 ± 0.009 mPa·s
- viscosity (298.15 K, x2 = 0.0006597, x1 = 0.00036): 0.915 ± 0.009 mPa·s
- viscosity (298.15 K, x2 = 0.0009539, x1 = 9.001e-05): 0.913 ± 0.009 mPa·s
- viscosity (298.15 K, x2 = 0.0009554, x1 = 0.00018): 0.917 ± 0.009 mPa·s
- viscosity (298.15 K, x2 = 0.0009567, x1 = 0.0003599): 0.921 ± 0.009 mPa·s
- viscosity (298.15 K, x2 = 0.0009569, x1 = 0.00027): 0.919 ± 0.009 mPa·s
- viscosity (298.15 K, x2 = 0.001253, x1 = 8.998e-05): 0.92 ± 0.009 mPa·s
- viscosity (298.15 K, x2 = 0.001255, x1 = 0.0001799): 0.922 ± 0.009 mPa·s
- viscosity (298.15 K, x2 = 0.001255, x1 = 0.0002699): 0.924 ± 0.009 mPa·s
- viscosity (298.15 K, x2 = 0.001257, x1 = 0.0003598): 0.928 ± 0.009 mPa·s
- viscosity (298.15 K, x2 = 0.001553, x1 = 8.995e-05): 0.925 ± 0.009 mPa·s
- viscosity (298.15 K, x2 = 0.001556, x1 = 0.0001799): 0.929 ± 0.012 mPa·s
- viscosity (298.15 K, x2 = 0.001558, x1 = 0.0002698): 0.931 ± 0.009 mPa·s
- viscosity (298.15 K, x2 = 0.001561, x1 = 0.0003597): 0.934 ± 0.009 mPa·s
- viscosity (298.15 K, x2 = 0.001859, x1 = 8.992e-05): 0.931 ± 0.009 mPa·s
- viscosity (298.15 K, x2 = 0.00186, x1 = 0.0001798): 0.934 ± 0.009 mPa·s
- viscosity (298.15 K, x2 = 0.001863, x1 = 0.0002697): 0.938 ± 0.009 mPa·s
- viscosity (298.15 K, x2 = 0.001866, x1 = 0.0003596): 0.94 ± 0.009 mPa·s
- viscosity (308.15 K, x2 = 0.0003644, x1 = 0.0003601): 0.734 ± 0.008 mPa·s
- viscosity (308.15 K, x2 = 0.0003645, x1 = 9.006e-05): 0.726 ± 0.008 mPa·s
- viscosity (308.15 K, x2 = 0.000365, x1 = 0.0001801): 0.729 ± 0.008 mPa·s
- viscosity (308.15 K, x2 = 0.0003656, x1 = 0.0002701): 0.731 ± 0.008 mPa·s
- viscosity (308.15 K, x2 = 0.0006576, x1 = 0.0001801): 0.734 ± 0.008 mPa·s
- viscosity (308.15 K, x2 = 0.0006584, x1 = 9.003e-05): 0.732 ± 0.008 mPa·s
- viscosity (308.15 K, x2 = 0.0006587, x1 = 0.00027): 0.737 ± 0.008 mPa·s
- viscosity (308.15 K, x2 = 0.0006597, x1 = 0.00036): 0.739 ± 0.008 mPa·s
- viscosity (308.15 K, x2 = 0.0009539, x1 = 9.001e-05): 0.737 ± 0.008 mPa·s
- viscosity (308.15 K, x2 = 0.0009554, x1 = 0.00018): 0.74 ± 0.008 mPa·s
- viscosity (308.15 K, x2 = 0.0009567, x1 = 0.0003599): 0.745 ± 0.008 mPa·s
- viscosity (308.15 K, x2 = 0.0009569, x1 = 0.00027): 0.742 ± 0.008 mPa·s
- viscosity (308.15 K, x2 = 0.001253, x1 = 8.998e-05): 0.743 ± 0.008 mPa·s
- viscosity (308.15 K, x2 = 0.001255, x1 = 0.0001799): 0.745 ± 0.008 mPa·s
- viscosity (308.15 K, x2 = 0.001255, x1 = 0.0002699): 0.748 ± 0.008 mPa·s
- viscosity (308.15 K, x2 = 0.001257, x1 = 0.0003598): 0.751 ± 0.008 mPa·s
- viscosity (308.15 K, x2 = 0.001553, x1 = 8.995e-05): 0.747 ± 0.008 mPa·s
- viscosity (308.15 K, x2 = 0.001556, x1 = 0.0001799): 0.75 ± 0.008 mPa·s
- viscosity (308.15 K, x2 = 0.001558, x1 = 0.0002698): 0.754 ± 0.008 mPa·s
- viscosity (308.15 K, x2 = 0.001561, x1 = 0.0003597): 0.757 ± 0.008 mPa·s
- viscosity (308.15 K, x2 = 0.001859, x1 = 8.992e-05): 0.751 ± 0.008 mPa·s
- viscosity (308.15 K, x2 = 0.00186, x1 = 0.0001798): 0.755 ± 0.008 mPa·s
- viscosity (308.15 K, x2 = 0.001863, x1 = 0.0002697): 0.758 ± 0.008 mPa·s
- viscosity (308.15 K, x2 = 0.001866, x1 = 0.0003596): 0.762 ± 0.008 mPa·s
- viscosity (318.15 K, x2 = 0.0003644, x1 = 0.0003601): 0.61 ± 0.008 mPa·s
- viscosity (318.15 K, x2 = 0.0003645, x1 = 9.006e-05): 0.603 ± 0.008 mPa·s
- viscosity (318.15 K, x2 = 0.000365, x1 = 0.0001801): 0.605 ± 0.008 mPa·s
- viscosity (318.15 K, x2 = 0.0003656, x1 = 0.0002701): 0.607 ± 0.008 mPa·s
- viscosity (318.15 K, x2 = 0.0006576, x1 = 0.0001801): 0.608 ± 0.008 mPa·s
- viscosity (318.15 K, x2 = 0.0006584, x1 = 9.003e-05): 0.606 ± 0.008 mPa·s
- viscosity (318.15 K, x2 = 0.0006587, x1 = 0.00027): 0.611 ± 0.008 mPa·s
- viscosity (318.15 K, x2 = 0.0006597, x1 = 0.00036): 0.614 ± 0.008 mPa·s
- viscosity (318.15 K, x2 = 0.0009539, x1 = 9.001e-05): 0.611 ± 0.008 mPa·s
- viscosity (318.15 K, x2 = 0.0009554, x1 = 0.00018): 0.612 ± 0.008 mPa·s
- viscosity (318.15 K, x2 = 0.0009567, x1 = 0.0003599): 0.619 ± 0.008 mPa·s
- viscosity (318.15 K, x2 = 0.0009569, x1 = 0.00027): 0.617 ± 0.008 mPa·s
- viscosity (318.15 K, x2 = 0.001253, x1 = 8.998e-05): 0.615 ± 0.008 mPa·s
- viscosity (318.15 K, x2 = 0.001255, x1 = 0.0001799): 0.616 ± 0.008 mPa·s
- viscosity (318.15 K, x2 = 0.001255, x1 = 0.0002699): 0.621 ± 0.008 mPa·s
- viscosity (318.15 K, x2 = 0.001257, x1 = 0.0003598): 0.624 ± 0.008 mPa·s
- viscosity (318.15 K, x2 = 0.001553, x1 = 8.995e-05): 0.62 ± 0.008 mPa·s
- viscosity (318.15 K, x2 = 0.001556, x1 = 0.0001799): 0.622 ± 0.011 mPa·s
- viscosity (318.15 K, x2 = 0.001558, x1 = 0.0002698): 0.626 ± 0.008 mPa·s
- viscosity (318.15 K, x2 = 0.001561, x1 = 0.0003597): 0.629 ± 0.008 mPa·s
- viscosity (318.15 K, x2 = 0.001859, x1 = 8.992e-05): 0.625 ± 0.008 mPa·s
- viscosity (318.15 K, x2 = 0.00186, x1 = 0.0001798): 0.627 ± 0.008 mPa·s
- viscosity (318.15 K, x2 = 0.001863, x1 = 0.0002697): 0.631 ± 0.008 mPa·s
- viscosity (318.15 K, x2 = 0.001866, x1 = 0.0003596): 0.634 ± 0.008 mPa·s
